Results from patent US20080275058A1, “N-Substituted-1H-Quinoline-2,4-Diones, Preparation Method Thereof, And Pharmaceutical Composition Containing The Same” (KOREA RESEARCH INSTITUTE OF CHEMICAL TECHNOLOGY, priority 2005, published 2008).
Like-named read-outs stand apart in the source and are kept apart here.

How the values were obtained:
hD4.2 receptor = molecular target: T1, hD4.2 receptor (Homo sapiens, UniProt P21917, DEL265-296); assay: Radioligand binding, dopamine D4 ([3H]YM-09151-2); details: Table 4; [3H]YM-09151-2 0.06 nM; read-out: Binding affinity, IC50 (nM) D4
T1 construct: purchased BioSignal Packard Inc., Montreal, Canada
T1 sequence (P21917 with tags, fused parts or gaps DEL265-296): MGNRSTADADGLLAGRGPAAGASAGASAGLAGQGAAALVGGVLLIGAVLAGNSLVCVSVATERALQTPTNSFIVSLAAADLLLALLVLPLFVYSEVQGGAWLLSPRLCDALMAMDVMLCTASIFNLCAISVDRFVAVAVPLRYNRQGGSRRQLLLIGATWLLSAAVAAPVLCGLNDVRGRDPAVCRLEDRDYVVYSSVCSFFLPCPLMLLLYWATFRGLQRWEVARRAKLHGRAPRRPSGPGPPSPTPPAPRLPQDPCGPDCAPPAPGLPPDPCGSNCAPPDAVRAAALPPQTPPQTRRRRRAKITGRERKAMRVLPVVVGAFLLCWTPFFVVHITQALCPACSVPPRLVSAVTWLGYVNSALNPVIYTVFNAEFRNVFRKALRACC
Experimental: (§1) 2-2: Binding assays of Dopamine Receptor Family
(§2) The radioligands used were [^3H] spiperone (for hD2L and hD3 receptors, 1 nM) and [^3H] YM-09151-2 (for hD4.2 receptor, 0.06 nM). Radioligand bindings were performed by the protocols provided by the supplier of receptor membranes (BioSignal Packard Inc., Montreal, Canada). Briefly, the buffer used in D2 or D3 receptor binding assay was 50 mM Tris-HCl (pH 7.4), 10 mM MgCl2, 1 mM EDTA, or 50 mM Tris-HCl (pH 7.4), 5 mM MgCl2, 5 mM EDTA, 5 mM KCl, 1.5 mM CaCl2, 120 mM NaCl, respectively. In [^3H] YM-09151-2 receptor binding assays, the buffer containing 50 mM Tris-HCl (pH 7.4), 5 mM MgCl2, 5 mM EDTA, 5 mM KCl and 1.5 mM CaCl2 was used. […] Competition binding studies were carried out with 7-8 concentrations of the test compound run in duplicate tubes, and isotherms from three assays were calculated by computerized nonlinear regression analysis (GraphPad Prism Program, San Diego, […]) to yield median inhibitory concentration (IC50) values.

5-HT2c = molecular target: T2, 5-HT2c (Homo sapiens, UniProt P28335); assay: Radioligand binding, 5-HT2c ([3H]Mesulergine); details: Table 4; [3H]Mesulergine 1 nM; read-out: Binding affinity, IC50 (nM) 5-HT2c
T2 construct: purchased Euroscreen/BioSignal Packard Inc
T2 sequence (P28335 33-458): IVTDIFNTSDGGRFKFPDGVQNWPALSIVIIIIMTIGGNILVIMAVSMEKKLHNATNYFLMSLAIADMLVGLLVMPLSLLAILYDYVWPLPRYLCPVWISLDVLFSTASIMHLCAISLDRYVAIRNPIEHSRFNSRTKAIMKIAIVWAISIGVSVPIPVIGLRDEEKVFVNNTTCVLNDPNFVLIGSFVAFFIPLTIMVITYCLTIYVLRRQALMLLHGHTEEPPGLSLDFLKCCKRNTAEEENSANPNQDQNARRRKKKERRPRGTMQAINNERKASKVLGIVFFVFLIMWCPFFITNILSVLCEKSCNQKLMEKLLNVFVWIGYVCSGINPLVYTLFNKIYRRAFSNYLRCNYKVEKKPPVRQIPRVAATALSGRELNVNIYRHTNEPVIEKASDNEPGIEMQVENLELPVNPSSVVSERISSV

D1 = D1 (Homo sapiens, UniProt P21728); assay: Radioligand binding, dopamine D1; details: Table 4; read-out: Binding affinity, IC50 (nM) D1
hD3 = molecular target: T3, hD3 (Homo sapiens, UniProt P35462); assay: Radioligand binding, dopamine D3 ([3H]spiperone); details: Table 4; [3H]spiperone 1 nM; read-out: Binding affinity, IC50 (nM) D3
T3 construct: purchased BioSignal Packard Inc., Montreal, Canada
Experimental: as §1, §2

hD2L = molecular target: T4, hD2L (Homo sapiens, UniProt P14416); assay: Radioligand binding, dopamine D2 ([3H]spiperone); details: Table 4; [3H]spiperone 1 nM; read-out: Binding affinity, IC50 (nM) D2
T4 construct: purchased BioSignal Packard Inc., Montreal, Canada
Experimental: as §1, §2

5-HT7 = molecular target: T5, 5-HT7 (Homo sapiens, UniProt P34969); assay: Radioligand binding, 5-HT7 ([3H]LSD); details: Table 4; [3H]LSD 3 nM; read-out: Binding affinity, IC50 (nM) 5-HT7
T5 construct: purchased Euroscreen/BioSignal Packard Inc

5-HT2a = molecular target: T6, 5-HT2a (Homo sapiens, UniProt P28223); assay: Radioligand binding, 5-HT2a ([3H]Ketanserin); details: Table 4; [3H]Ketanserin 1 nM; read-out: Binding affinity, IC50 (nM) 5-HT2a
T6 construct: purchased Euroscreen/BioSignal Packard Inc

[1] = molecular target: T7, Human serotonin 5-HT6 receptor (Homo sapiens, UniProt P50406); assay: [3H]LSD binding assay on cloned 5-HT6 receptor membranes
T7 construct: made in house; host or cells: insect Sf21 cells (baculovirus vector BacPAK8)

5-HT1a = molecular target: T8, 5-HT1a (Homo sapiens, UniProt P08908); assay: Radioligand binding, 5-HT1a ([3H]8-OH-DPAT); details: Table 4; [3H]8-OH-DPAT 0.5 nM; read-out: Binding affinity, IC50 (nM) 5-HT1a
T8 construct: purchased Euroscreen/BioSignal Packard Inc
T8 sequence (P08908 1-422): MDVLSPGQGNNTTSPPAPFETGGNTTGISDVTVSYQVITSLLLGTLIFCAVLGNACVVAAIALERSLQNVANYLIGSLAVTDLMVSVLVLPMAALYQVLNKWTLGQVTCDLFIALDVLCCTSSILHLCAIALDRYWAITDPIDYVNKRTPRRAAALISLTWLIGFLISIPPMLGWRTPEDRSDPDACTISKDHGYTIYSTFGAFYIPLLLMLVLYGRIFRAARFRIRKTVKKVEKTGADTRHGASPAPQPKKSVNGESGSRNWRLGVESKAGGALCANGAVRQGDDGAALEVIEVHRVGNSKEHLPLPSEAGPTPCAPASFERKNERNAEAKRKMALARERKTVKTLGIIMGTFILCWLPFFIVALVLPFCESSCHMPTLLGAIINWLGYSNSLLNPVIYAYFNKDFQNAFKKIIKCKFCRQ
Experimental: Radioligand bindings were performed according to the test method provided by the supplier of receptor membrane (Euroscreen/BioSignal Packard Inc.). The detailed assay conditions and the results were shown in the following Table 3 and Table 4, respectively.

[2] = Table 2, 1.87 nM [3H]LSD, 37 C, 60 min, read-out: IC50 (nM), binding affinity to the 5-HT6 receptor
[3] = Table 4, read-out: Binding affinity, IC50 (nM) 5-HT6

T6 sequence (P28223 whole entry): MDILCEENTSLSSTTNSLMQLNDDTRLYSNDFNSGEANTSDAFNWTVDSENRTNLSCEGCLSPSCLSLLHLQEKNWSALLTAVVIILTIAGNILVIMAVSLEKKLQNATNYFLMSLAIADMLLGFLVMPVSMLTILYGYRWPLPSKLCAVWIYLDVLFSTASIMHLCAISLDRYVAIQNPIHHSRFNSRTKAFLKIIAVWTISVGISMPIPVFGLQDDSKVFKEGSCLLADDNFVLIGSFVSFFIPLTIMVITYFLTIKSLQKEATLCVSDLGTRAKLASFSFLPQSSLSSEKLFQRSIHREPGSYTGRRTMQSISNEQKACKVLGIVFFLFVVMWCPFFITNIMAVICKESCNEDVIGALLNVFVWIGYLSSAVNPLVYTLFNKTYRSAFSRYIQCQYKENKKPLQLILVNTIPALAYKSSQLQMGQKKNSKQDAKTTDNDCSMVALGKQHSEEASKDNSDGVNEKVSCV
T3 sequence (P35462 whole entry): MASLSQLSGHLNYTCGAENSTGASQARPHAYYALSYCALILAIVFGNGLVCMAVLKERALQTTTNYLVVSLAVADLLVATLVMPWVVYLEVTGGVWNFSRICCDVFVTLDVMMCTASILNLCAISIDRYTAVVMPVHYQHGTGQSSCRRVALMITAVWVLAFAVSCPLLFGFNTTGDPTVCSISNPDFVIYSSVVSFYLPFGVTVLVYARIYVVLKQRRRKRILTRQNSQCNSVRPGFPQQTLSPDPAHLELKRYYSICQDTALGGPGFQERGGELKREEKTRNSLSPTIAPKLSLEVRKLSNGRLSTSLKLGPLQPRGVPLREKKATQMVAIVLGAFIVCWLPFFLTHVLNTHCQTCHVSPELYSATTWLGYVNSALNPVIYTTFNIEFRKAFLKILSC
T5 sequence (P34969 whole entry): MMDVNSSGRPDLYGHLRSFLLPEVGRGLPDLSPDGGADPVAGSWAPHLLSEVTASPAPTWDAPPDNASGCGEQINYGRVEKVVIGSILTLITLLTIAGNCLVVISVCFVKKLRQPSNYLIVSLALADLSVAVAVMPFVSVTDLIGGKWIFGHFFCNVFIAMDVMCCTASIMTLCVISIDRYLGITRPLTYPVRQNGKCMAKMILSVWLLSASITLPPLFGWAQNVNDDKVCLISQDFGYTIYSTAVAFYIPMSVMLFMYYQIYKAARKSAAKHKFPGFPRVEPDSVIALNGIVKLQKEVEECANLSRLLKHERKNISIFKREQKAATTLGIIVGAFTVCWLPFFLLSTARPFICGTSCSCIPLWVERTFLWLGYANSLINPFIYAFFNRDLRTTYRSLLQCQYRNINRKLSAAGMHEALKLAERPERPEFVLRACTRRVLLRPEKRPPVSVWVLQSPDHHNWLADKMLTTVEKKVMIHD
T7 sequence (P50406 whole entry): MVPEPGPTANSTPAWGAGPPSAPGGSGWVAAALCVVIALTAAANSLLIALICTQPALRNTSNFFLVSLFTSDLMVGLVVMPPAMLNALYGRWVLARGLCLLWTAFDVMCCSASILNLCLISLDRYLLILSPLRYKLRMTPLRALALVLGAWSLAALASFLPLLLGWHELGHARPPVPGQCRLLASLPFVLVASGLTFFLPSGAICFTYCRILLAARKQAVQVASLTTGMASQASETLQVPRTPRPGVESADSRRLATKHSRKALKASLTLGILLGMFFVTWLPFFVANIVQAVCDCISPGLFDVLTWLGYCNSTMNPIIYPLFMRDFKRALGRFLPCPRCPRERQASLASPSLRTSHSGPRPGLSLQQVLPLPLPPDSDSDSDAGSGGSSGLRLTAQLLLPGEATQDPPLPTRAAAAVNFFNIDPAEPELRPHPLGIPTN
T4 sequence (P14416 whole entry): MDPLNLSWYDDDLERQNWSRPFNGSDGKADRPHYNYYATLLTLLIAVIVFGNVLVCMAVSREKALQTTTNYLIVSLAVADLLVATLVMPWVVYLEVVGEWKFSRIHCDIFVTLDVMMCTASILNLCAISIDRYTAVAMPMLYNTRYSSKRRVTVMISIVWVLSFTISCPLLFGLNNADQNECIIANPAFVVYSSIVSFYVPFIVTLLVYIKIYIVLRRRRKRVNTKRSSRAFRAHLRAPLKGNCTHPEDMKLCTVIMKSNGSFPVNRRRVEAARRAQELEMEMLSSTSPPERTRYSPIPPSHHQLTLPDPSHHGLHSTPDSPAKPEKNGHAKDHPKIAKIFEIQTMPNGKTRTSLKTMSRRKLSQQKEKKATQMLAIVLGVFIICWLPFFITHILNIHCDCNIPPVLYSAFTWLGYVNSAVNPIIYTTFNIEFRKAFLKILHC
Sequence of D1 (P21728 whole entry): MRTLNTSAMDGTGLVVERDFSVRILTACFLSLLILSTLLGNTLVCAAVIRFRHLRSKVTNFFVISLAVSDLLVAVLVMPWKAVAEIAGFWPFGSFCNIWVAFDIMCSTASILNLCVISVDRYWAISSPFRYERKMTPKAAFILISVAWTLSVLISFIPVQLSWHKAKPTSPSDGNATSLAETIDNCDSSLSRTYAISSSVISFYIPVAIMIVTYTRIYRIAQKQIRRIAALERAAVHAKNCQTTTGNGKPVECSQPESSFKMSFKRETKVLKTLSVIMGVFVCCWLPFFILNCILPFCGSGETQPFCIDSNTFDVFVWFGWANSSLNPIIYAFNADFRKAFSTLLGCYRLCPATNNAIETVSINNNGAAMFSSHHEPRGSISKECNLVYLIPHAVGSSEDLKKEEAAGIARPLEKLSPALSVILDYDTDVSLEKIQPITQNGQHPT

SMILES | IC50 (hD4.2 receptor) | IC50 (5-HT2c) | melting point | IC50 (D1) | IC50 (hD3) | IC50 (hD2L) | IC50 (5-HT7) | IC50 (5-HT2a) | IC50 [1, 2] | IC50 [1, 3] | binding affinity at 5-HT6 receptor labeled by [3H]LSD, in words ([1]; comment on Table 2) | IC50 (5-HT1a)
COc1cccc(C2(C)C(=O)c3c(N4CCNCC4)cc(Cl)cc3N(Cc3ccccc3)C2=O)c1 (centres unmarked) [Example 50, 1-Benzyl-7-chloro-3-(3-methoxy-phenyl)-3-methyl-5-piperazin-1-yl-1H-quinoline-2,4-dione] | 9040 nM | 7470 nM | 110 to 112 °C | 7740 nM | 9760 nM | 7190 nM | 7640 nM | 9150 nM | 1.8 nM | 18.4 nM | significant affinities | > 1000 nM
CC1(c2ccc(O)cc2)C(=O)c2c(N3CCNCC3)cc(Cl)cc2N(CC2CCCCC2)C1=O (centres unmarked) [Example 49, 7-Chloro-1-cyclohexylmethyl-3-(4-hydroxy-phenyl)-3-methyl-5-piperazin-1-yl-1H-quinoline-2,4-dione] | 8780 nM | 7530 nM | 175 to 176 °C | 8140 nM | 8680 nM | > 10000 nM | 9510 nM | 5810 nM | 11.7 nM | 17.5 nM | – | 6300 nM
CC1(c2ccc(O)cc2)C(=O)c2c(N3CCNCC3)cc(Cl)cc2N(Cc2cccc(Br)c2)C1=O (centres unmarked) [Example 34, 1-(3-Bromo-benzyl)-7-chloro-3-(4-hydroxy-phenyl)-3-methyl-5-piperazin-1-yl-1H-quinoline-2,4-dione] | 9350 nM | 7030 nM | – | 9160 nM | 9000 nM | 8050 nM | 9070 nM | 6960 nM | 3.6 nM | 16.8 nM | – | 7550 nM
CCNc1ccc(C2(C)C(=O)c3c(N4CCNCC4)cc(Cl)cc3N(Cc3ccccc3)C2=O)cc1 (centres unmarked) [Example 18, 1-Benzyl-7-chloro-3-(4-ethylamino-phenyl)-3-methyl-5-piperazin-1-yl-1H-quinoline-2,4-dione] | 8990 nM | 8450 nM | – | > 10000 nM | 8900 nM | > 1000 nM | 6010 nM | 7010 nM | 14.6 nM | 15.5 nM | – | 8050 nM
CC1(c2ccc(O)cc2)C(=O)c2c(N3CCNCC3)cc(Cl)cc2N(Cc2ccccc2O)C1=O (centres unmarked) [Example 30, 7-Chloro-1-(2-hydroxy-benzyl)-3-(4-hydroxy-phenyl)-3-methyl-5-piperazin-1-yl-1H-quinoline-2,4-dione] | 8760 nM | 9450 nM | – | 8000 nM | 9780 nM | 7650 nM | 7340 nM | 8400 nM | 15.9 nM | 18.1 nM | – | 7240 nM
CC1(c2ccc(N)cc2)C(=O)c2c(N3CCNCC3)cc(Cl)cc2N(Cc2ccccc2)C1=O (centres unmarked) [Example 16, 3-(4-Amino-phenyl)-1-benzyl-7-chloro-3-methyl-5-piperazin-1-yl-1H-quinolin-2,4-dione] | 8910 nM | 9880 nM | – | 9010 nM | 9070 nM | 6740 nM | 9350 nM | 8080 nM | 3.2 nM | 17.6 nM | – | 6020 nM
CCN(CC)c1ccc(C2(C)C(=O)c3c(N4CCNCC4)cc(Cl)cc3N(Cc3ccccc3)C2=O)cc1 (centres unmarked) [Example 17, 1-Benzyl-7-chloro-3-(4-diethylamino-phenyl)-3-methyl-5-piperazin-1-yl-1H-quinoline-2,4-dione] | 9110 nM | 9810 nM | – | 8410 nM | 8200 nM | 9050 nM | > 10000 nM | 7550 nM | 41.5 nM | 21.5 nM | – | 8550 nM
CN1CCN(c2cc(Cl)cc3c2C(=O)[C@@](C)(c2ccc(N)cc2)C(=O)N3Cc2ccccc2)CC1 (stereo in doubt) [Example 4, 3-(4-Amino-phenyl)-1-benzyl-7-chloro-3-methyl-5-(4-methyl-piperazin-1-yl)-1H-quinoline-2,4-dione] | 8190 nM | 5780 nM | – | 7090 nM | 8110 nM | 6550 nM | 5050 nM | 7010 nM | 7.4 nM | 15 nM | – | 5800 nM
CC1(c2ccc(O)cc2)C(=O)c2c(N3CCNCC3)cc(Cl)cc2N(Cc2cccnc2)C1=O (centres unmarked) [Example 38, 7-Chloro-3-(4-hydroxy-phenyl)-3-methyl-5-piperazin-1-yl-1-pyridin-3-ylmethyl-1H-quinoline-2,4-dione] | 9240 nM | 9140 nM | – | 9410 nM | 9310 nM | 7690 nM | 6410 nM | 8400 nM | 30.6 nM | 20.4 nM | – | 8450 nM
CC1(c2ccc(O)cc2)C(=O)c2c(N3CCNCC3)cc(Cl)cc2N(Cc2ccc3ccccc3c2)C1=O (centres unmarked) [Example 40, 7-Chloro-3-(4-hydroxy-phenyl)-3-methyl-1-naphthalen-2-ylmethyl-5-piperazin-1-yl-1H-quinoline-2,4-dione] | 8980 nM | 8510 nM | – | 7510 nM | 9310 nM | 8540 nM | 7810 nM | 9480 nM | 55.7 nM | 18.2 nM | – | 7510 nM
CC1(c2ccc(O)cc2)C(=O)c2c(N3CCNCC3)cc(Cl)cc2N(Cc2cccc(N)c2)C1=O (centres unmarked) [Example 26, 1-(3-Amino-benzyl)-7-chloro-3-(4-hydroxy-phenyl)-3-methyl-5-piperazin-1yl-1H-quinoline-2,4-dione] | 9410 nM | 7330 nM | – | 6950 nM | 9120 nM | 8410 nM | 5630 nM | 5750 nM | 8.7 nM | 19 nM | – | 5900 nM
